From publication PMC4458377 (Biochemistry, 2014)

Columns and labels:
BAZ2B bromodomain [1] = molecular target: T1, BAZ2B bromodomain (Homo sapiens, UniProt Q9UIF8); experiment: ITC of H3K14ac peptides binding to BAZ2B bromodomain
T1 sequence (Q9UIF8 1868-1972 isoform Q9UIF8-4): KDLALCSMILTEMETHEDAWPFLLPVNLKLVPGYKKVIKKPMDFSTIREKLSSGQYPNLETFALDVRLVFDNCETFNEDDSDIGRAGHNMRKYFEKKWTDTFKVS

BAZ2B bromodomain [2] = molecular target: T1, BAZ2B bromodomain; conditions: acetylated lysine alone; cited from earlier work

Molecule | Kd (BAZ2B bromodomain [1]) | interaction with BAZ2B bromodomain (BAZ2B bromodomain [2]) | reduction in affinity relative to Peptide 4 (BAZ2B bromodomain [1]; ITC KD ratio)
Ac-KSTGGK(Ac)APRK-NH2 [Peptide 4] | 21.8 ± 1.4 µM | – | –
CC(=O)NCCCC[C@H](N)C(=O)O [Acetylated lysine, N-ε-acetyl lysine] | – | interact only very weakly | –
CC(=O)NCCCC[C@H](NC(=O)CNC(=O)CNC(=O)[C@@H](NC(=O)[C@H](CO)NC(=O)[C@H](CCCCN)NC(C)=O)[C@@H](C)O)C(=O)N[C@@H](C)C(=O)N1CCC[C@H]1C(=O)N[C@@H](CCCNC(=N)N)C(=O)N[C@@H](CCCCN)C(=O)N[C@@H](CCC(N)=O)C(N)=O [Peptide 3] | 15.7 ± 1.1 µM | – | –
CC(=O)NCCCC[C@H](NC(=O)CNC(=O)CNC(=O)[C@@H](NC(=O)[C@H](CO)NC(C)=O)[C@@H](C)O)C(=O)N[C@@H](C)C(=O)N1CCC[C@H]1C(=O)N[C@@H](CCCNC(=N)N)C(=O)N[C@@H](CCCCN)C(N)=O [Peptide 1] | 45 ± 3.3 µM | – | 2 fold
